From US20260166039A1 (SCHRÖDINGER, INC., priority 2022, published 2026)
Like-named read-outs stand apart in the source and are kept apart here.

Key:
Wee1 kinase domain = target: T1, Wee1 kinase domain (Homo sapiens, UniProt P30291); assay: Wee1 Kinase Biochemical Assay (ADP-Glo); conditions: 15 uM ATP
T1 construct: Wee1 kinase domain was purchased from Carna (catalog #05-177); purchased Carna 05-177
Summary of the method: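 Kinase domain (1 nM) incubated 4 h at 25 °C with 15 uM ATP and 2 ng/mL Poly(Lys,Tyr 4:1) in 40 mM Tris-HCl, 20 mM MgCl2, 0.1 mg/mL BSA, 2 mM DTT. ADP formation read by ADP-Glo luminescence; percent inhibition normalized to DMSO and saturating reference-inhibitor controls.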

[1] = tested on: phosphorylation of Cdc2 Y15 (Wee1 substrate) in A427 cells; assay: Phosphorylated Cdc2 MSD Electrochemiluminescence Assay; type: cell-based
Summary of the method: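 A427 cells (RPMI 1640, 10% FBS) treated 20 h after plating with 3-fold serial compound dilutions, in duplicate, 37 °C, 5% CO2; total incubation 6 h. Lysate Cdc2 pY15 read by MSD electrochemiluminescence sandwich immunoassay; % remaining signal normalised to DMSO (high) and reference Wee1 inhibitor (low) controls.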

[2] = class symbols, 1 nM Wee1 enzyme, 4 hours at 25° C.
[3] = Homo sapiens, A-427, class symbols, read-out: A427 pCDC2 MSD IC50

T1 sequence (P30291 299-569 limits assumed): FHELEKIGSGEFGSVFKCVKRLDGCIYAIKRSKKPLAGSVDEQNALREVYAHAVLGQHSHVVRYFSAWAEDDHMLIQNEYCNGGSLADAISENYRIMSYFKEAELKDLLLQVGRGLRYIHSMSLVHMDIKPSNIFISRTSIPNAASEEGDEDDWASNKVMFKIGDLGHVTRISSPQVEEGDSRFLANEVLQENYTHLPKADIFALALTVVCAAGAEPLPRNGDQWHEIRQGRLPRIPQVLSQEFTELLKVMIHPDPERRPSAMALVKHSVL

| SMILES | IC50 (Wee1 kinase domain; Wee1 kinase domain, ADP-Glo) | IC50 ([1]; Homo sapiens, A-427, pCDC2 MSD) | IC50 (Wee1 kinase domain; [2]) | IC50 [1, 3] | IC50 ([1]; pCDC2 MSD) |
| --- | --- | --- | --- | --- | --- |
| CNCc1cccc(N2c3nc(Nc4ccc(C5CCOCC5)nc4)ncc3[C@@]3(C)COC(C)(C)C[C@@H]23)n1 (single isomer, unassigned) [Example 56] | < 10 nM | 100 to 1000 nM |  |  |  |
| CNCc1cccc(N2c3nc(Nc4ccc(N5C6CCC5COC6)c(C)c4)ncc3[C@@]3(C)COC(C)(C)C[C@@H]23)n1 (single isomer, unassigned) [Example 85] | < 10 nM | 100 to 1000 nM |  |  |  |
| C[C@H]1COC(=O)N1c1cccc(N2c3nc(Nc4cnn(C5CCN(C)CC5)c4)ncc3[C@@]3(C)COC(C)(C)C[C@@H]23)n1 (single isomer, unassigned) [Example 243] | < 10 nM | < 100 nM |  |  |  |
| CC1(C)C[C@H]2N(c3cccc(N=S(C)(C)=O)n3)c3nc(Nc4ccc5nccn5c4)ncc3[C@@]2(C)CO1 (single isomer, unassigned) [Example 504] |  |  | < 10 nM | 100 to 1000 nM |  |
| CN[C@@H](Cc1ccc(Nc2ncc3c(n2)N(c2cccc(N4C(=O)OC[C@@H]4C)n2)[C@@H]2CC(C)(C)OC[C@]32C)cc1)C(=O)O (single isomer, unassigned) [Example 321] | < 10 nM | 100 to 1000 nM |  |  |  |
| CNCc1cccc(N2c3nc(Nc4ccn([C@H]5CCOC5)c(=O)c4)ncc3[C@@]3(C)COC(C)(C)C[C@@H]23)n1 (single isomer, unassigned) [Example 389] | < 10 nM | 1000 to 10000 nM |  |  |  |
| CC1(C)C[C@H]2N(c3cccc(N=S(C)(C)=O)n3)c3nc(Nc4ccc(C5CNC5)nc4)ncc3[C@@]2(C)CO1 (single isomer, unassigned) [Example 190] | < 10 nM | 100 to 1000 nM |  |  |  |
| CN1CC[C@H](Oc2ccc(Nc3ncc4c(n3)N(c3cccc(N=S(C)(C)=O)n3)[C@@H]3CC(C)(C)OC[C@]43C)cc2)C1 (single isomer, unassigned) [Example 157] | < 10 nM | < 100 nM |  |  |  |
| C[C@H]1COC(=O)N1c1cccc(N2c3nc(Nc4ccc(N5CCN(C)CC5)nc4)ncc3[C@@]3(C)COC(C)(C)C[C@@H]23)n1 (single isomer, unassigned) [Example 241] | < 10 nM | 100 to 1000 nM |  |  |  |
| C[C@H]1COC(=O)N1c1cccc(N2c3nc(Nc4ccc([C@@H]5CCN(C)C5)nc4)ncc3[C@]3(C)COC(C)(C)C[C@H]23)n1 (single isomer, unassigned) [Example 264] | 10 to 100 nM | 100 to 1000 nM |  |  |  |
| C[C@H]1COC(=O)N1c1cccc(N2c3nc(Nc4ccc([C@@H]5CCNC5)cc4)ncc3[C@@]3(C)COC(C)(C)C[C@@H]23)n1 (single isomer, unassigned) [Example 275] | < 10 nM | 100 to 1000 nM |  |  |  |
| CC1(C)C[C@H]2N(c3cccc(N=S(C)(C)=O)n3)c3nc(NC(=O)[C@H]4C[C@@H]4c4ccccc4)ncc3[C@@]2(C)CO1 (single isomer, unassigned) [Example 397] | < 10 nM |  |  |  | 100 to 1000 nM |
| CC1(C)C[C@H]2N(c3cccc(N=S(C)(C)=O)n3)c3nc(Nc4ccc(N5CC6(CNC6)C5)cc4)ncc3[C@@]2(C)CO1 (single isomer, unassigned) [Example 494] |  |  | < 10 nM | 100 to 1000 nM |  |
| CNCc1cccc(N2c3nc(Nc4ccc(C(C)(C)C)cc4)ncc3[C@@]3(C)COC(C)(C)C[C@@H]23)n1 (single isomer, unassigned) [Example 73] | < 10 nM | 100 to 1000 nM |  |  |  |
| CC1(C)C[C@H]2N(c3cccc(N=S(C)(C)=O)n3)c3nc(Nc4cnn(C(F)F)c4)ncc3[C@@]2(C)CO1 (single isomer, unassigned) [Example 487] |  |  | < 10 nM | 100 to 1000 nM |  |
| CC1(C)C[C@H]2N(c3cccc(N=S(C)(C)=O)n3)c3nc(Nc4ccn(C5CC5)c(=O)c4)ncc3[C@@]2(C)CO1 (single isomer, unassigned) [Example 380] | < 10 nM | 100 to 1000 nM |  |  |  |
| CC1(C)C[C@H]2N(c3cccc(N=S(C)(C)=O)n3)c3nc(Nc4cnn(C5CCOCC5)c4)ncc3[C@@]2(C)CO1 (single isomer, unassigned) [Example 194] | < 10 nM | 100 to 1000 nM |  |  |  |

Further lines, results first:

| IC50 (Wee1 kinase domain; Wee1 kinase domain, ADP-Glo) | IC50 ([1]; Homo sapiens, A-427, pCDC2 MSD) | IC50 (Wee1 kinase domain; [2]) | IC50 [1, 3] | IC50 ([1]; pCDC2 MSD) | SMILES |
| --- | --- | --- | --- | --- | --- |
|  |  | < 10 nM | 100 to 1000 nM |  | CC1(C)CC2N(c3cccc([C@@H]4CCNC4)n3)c3nc(Nc4ccc(N5CCOCC5)cc4)ncc3C2(C)CO1 (stereo in doubt) [Example 539, (4bR,8aR)-4b,7,7-trimethyl-N-(4-morpholinophenyl)-9-(6-((R)-pyrrolidin-3-yl)pyridin-2-yl)-4b,5,7,8,8a,9-hexahydropyrano[3′,4′:4,5]pyrrolo[2,3-d]pyrimidin-2-amine] |
|  |  | < 10 nM | 100 to 1000 nM |  | CN1CCN(c2ccc(Nc3ncc4c(n3)N(c3cccc(S(C)(=O)=O)n3)[C@@H]3CC(C)(C)OC[C@]43C)cc2)CC1 (single isomer, unassigned) [Example 749] |
|  |  | < 10 nM | 100 to 1000 nM |  | CN1C[C@@H]2C[C@H]1CN2c1ccc(Nc2ncc3c(n2)N(c2cccc(N4CCCC4=O)n2)[C@@H]2CC(C)(C)OC[C@]32C)cc1F [Example 640, 1-(6-((4bR,8aR)-2-((3-fluoro-4-((1S,4S)-5-methyl-2,5-diazabicyclo[2.2.1]heptan-2-yl)phenyl)amino)-4b,7,7-trimethyl-4b,7,8,8a-tetrahydropyrano[3′,4′:4,5]pyrrolo[2,3-d]pyrimidin-9(5H)-yl)pyridin-2-yl)pyrrolidin-2-one] |
|  |  | < 10 nM | 100 to 1000 nM |  | CN1C[C@H]2C[C@@H]1CN2c1ccc(Nc2ncc3c(n2)N(c2cccc(N4CCOC4=O)n2)[C@@H]2CC(C)(C)OC[C@]32C)cc1F [Example 668, 3-(6-((4bR,8aR)-2-((3-fluoro-4-((1R,4R)-5-methyl-2,5-diazabicyclo[2.2.1]heptan-2-yl)phenyl)amino)-4b,7,7-trimethyl-4b,7,8,8a-tetrahydropyrano[3′,4′:4,5]pyrrolo[2,3-d]pyrimidin-9(5H)-yl)pyridin-2-yl)oxazolidin-2-one] |
|  |  | < 10 nM | 100 to 1000 nM |  | CN1CC[C@@](C)(c2ccc(Nc3ncc4c(n3)N(c3cccc(N5CCOC5=O)n3)[C@@H]3CC(C)(C)OC[C@]43C)cc2)C1 [Example 670, 3-(6-((4bR,8aR)-2-((4-((S)-1,3-dimethylpyrrolidin-3-yl)phenyl)amino)-4b,7,7-trimethyl-4b,7,8,8a-tetrahydropyrano[3′,4′:4,5]pyrrolo[2,3-d]pyrimidin-9(5H)-yl)pyridin-2-yl)oxazolidin-2-one] |
|  |  | < 10 nM | 100 to 1000 nM |  | CN1C[C@@H]2C[C@H]1CN2c1ccc(Nc2ncc3c(n2)N(c2cccc(C4(O)CC4)n2)[C@@H]2CC(C)(C)OC[C@]32C)cc1 [Example 644, 1-(6-((4bR,8aR)-4b,7,7-trimethyl-2-((4-((1S,4S)-5-methyl-2,5-diazabicyclo[2.2.1]heptan-2-yl)phenyl)amino)-4b,7,8,8a-tetrahydropyrano[3′,4′:4,5]pyrrolo[2,3-d]pyrimidin-9(5H)-yl)pyridin-2-yl)cyclopropan-1-ol] |
|  |  | < 10 nM | 100 to 1000 nM |  | CN1CC2(C1)CN(c1ccc(Nc3ncc4c(n3)N(c3cccc(N5CCCC5=O)n3)[C@@H]3CC(C)(C)OC[C@]43C)cc1)C2 [Example 690, 1-(6-((4bR,8aR)-4b,7,7-trimethyl-2-((4-(6-methyl-2,6-diazaspiro[3.3]heptan-2-yl)phenyl)amino)-4b,7,8,8a-tetrahydropyrano[3′,4′:4,5]pyrrolo[2,3-d]pyrimidin-9(5H)-yl)pyridin-2-yl)pyrrolidin-2-one] |
|  |  | < 10 nM | 100 to 1000 nM |  | CC1(C)C[C@H]2N(c3cccc(N=S(C)(C)=O)n3)c3nc(NC(=O)OC4CCOCC4)ncc3[C@@]2(C)CO1 (single isomer, unassigned) [Example 772] |
|  |  | < 10 nM | 100 to 1000 nM |  | Cc1cc(Nc2ncc3c(n2)N(c2cccc([C@H]4CCCN4)n2)[C@@H]2CC(C)(C)OC[C@]32C)ccc1N1CCOCC1 (single isomer, unassigned) [Example 522] |
|  |  | < 10 nM | 100 to 1000 nM |  | CC1(C)C[C@H]2N(c3cccc(N4CCOC4=O)n3)c3nc(Nc4ccc([C@H]5CNCC5(F)F)cc4)ncc3[C@@]2(C)CO1 [Example 682, 3-(6-((4bR,8aR)-2-((4-((S)-4,4-difluoropyrrolidin-3-yl)phenyl)amino)-4b,7,7-trimethyl-4b,7,8,8a-tetrahydropyrano[3′,4′:4,5]pyrrolo[2,3-d]pyrimidin-9(5H)-yl)pyridin-2-yl)oxazolidin-2-one] |
|  |  | < 10 nM | 100 to 1000 nM |  | CN1CC[C@@H](Oc2ccc(Nc3ncc4c(n3)N(c3cccc(N5CCCC5=O)n3)[C@@H]3CC(C)(C)OC[C@]43C)cc2)C1 [Example 626, 1-(6-((4bR,8aR)-4b,7,7-trimethyl-2-((4-(((R)-1-methylpyrrolidin-3-yl)oxy)phenyl)amino)-4b,7,8,8a-tetrahydropyrano[3′,4′:4,5]pyrrolo[2,3-d]pyrimidin-9(5H)-yl)pyridin-2-yl)pyrrolidin-2-one] |
|  |  | < 10 nM | 100 to 1000 nM |  | CC1(C)C[C@H]2N(c3cccc(C4CCNCC4)n3)c3nc(Nc4ccc(N5CCOCC5)cc4)ncc3[C@@]2(C)CO1 (single isomer, unassigned) [Example 531] |
|  |  | < 10 nM | 100 to 1000 nM |  | CC1(C)C[C@H]2N(c3cccc(N4CCOC4=O)n3)c3nc(Nc4ccc([C@]5(C)CCNC5)cc4)ncc3[C@@]2(C)CO1 [Example 664, 3-(6-((4bR,8aR)-4b,7,7-trimethyl-2-((4-((S)-3-methylpyrrolidin-3-yl)phenyl)amino)-4b,7,8,8a-tetrahydropyrano[3′,4′:4,5]pyrrolo[2,3-d]pyrimidin-9(5H)-yl)pyridin-2-yl)oxazolidin-2-one] |
